Activity calls are given as the source filed them. The calls are words filed in the database; no cut-off is given here.
Experiments:
Mus musculus [1] = assay: Hepatotoxicity in BALB/c mouse assessed as increase in liver ALT level at 60 mg/kg, ip after 72 hrs; assay type: toxicity, organism-based; design: dose 60 mg/kg, route intraperitoneal; conditions: in vivo
Mus musculus [2] = assay: Reduction of PTEN mRNA level in BALB/c mouse liver at 37 mg/kg, ip after 72 hrs; assay type: functional, organism-based; design: dose 37 mg/kg
Mus musculus [3] = assay: Reduction of PTEN mRNA level in BALB/c mouse liver at 60 mg/kg, ip after 72 hrs; assay type: functional, organism-based; design: dose 60 mg/kg

Compound | Activity (Mus musculus [1]) | Activity (Mus musculus [2]) | Activity (Mus musculus [3])
Cc1cn([C@@H]2O[C@@]3(COP(O)(=S)O[C@H]4[C@H]5OC[C@]4(COP(O)(=S)O[C@@H]4[C@H](O)[C@@H](COP(O)(=S)O[C@H]6[C@@H](O)[C@H](n7cnc8c(=O)[nH]c(N)nc87)O[C@@H]6COP(O)(=S)O[C@H]6[C@@H](O)[C@H](n7ccc(N)nc7=O)O[C@@H]6COP(O)(=S)O[C@H]6[C@@H](O)[C@H](n7ccc(N)nc7=O)O[C@@H]6COP(O)(=S)O[C@H]6C[C@H](n7cc(C)c(=O)[nH]c7=O)O[C@@H]6COP(O)(=S)O[C@H]6[C@@H](O)[C@H](n7ccc(N)nc7=O)O[C@@H]6COP(O)(=S)O[C@H]6C[C@H](n7cc(C)c(=O)[nH]c7=O)O[C@@H]6COP(O)(=S)O[C@H]6[C@@H](O)[C@H](n7cnc8c(=O)[nH]c(N)nc87)O[C@@H]6COP(O)(=S)O[C@H]6[C@@H](O)[C@H](n7cnc8c(=O)[nH]c(N)nc87)O[C@@H]6COP(O)(=S)O[C@H]6[C@@H](O)[C@H](n7cnc8c(N)ncnc87)O[C@@H]6COP(O)(=S)O[C@H]6[C@H]7OC[C@]6(COP(O)(=S)O[C@H]6[C@H]8OC[C@]6(CO)O[C@H]8n6cc(C)c(=O)[nH]c6=O)O[C@H]7n6cc(C)c(=O)[nH]c6=O)O[C@H]4n4cnc6c(N)ncnc64)O[C@H]5n4cc(C)c(=O)[nH]c4=O)CO[C@@H]2[C@@H]3O)c(=O)nc1N (some centres not stated) | Non-toxic | Active | Active
Cc1cn([C@@H]2O[C@@]3(COP(O)(=S)O[C@H]4[C@H]5OC[C@]4(COP(O)(=S)O[C@@H]4[C@H](O)[C@@H](COP(O)(=S)O[C@H]6[C@@H](O)[C@H](n7cnc8c(=O)[nH]c(N)nc87)O[C@@H]6COP(O)(=S)O[C@H]6[C@@H](O)[C@H](n7ccc(N)nc7=O)O[C@@H]6COP(O)(=S)O[C@H]6[C@@H](O)[C@H](n7ccc(N)nc7=O)O[C@@H]6COP(O)(=S)O[C@H]6C[C@H](n7cc(C)c(=O)[nH]c7=O)O[C@@H]6COP(O)(=S)O[C@H]6[C@@H](O)[C@H](n7ccc(N)nc7=O)O[C@@H]6COP(O)(=S)O[C@H]6C[C@H](n7cc(C)c(=O)[nH]c7=O)O[C@@H]6COP(O)(=S)O[C@H]6[C@@H](O)[C@H](n7cnc8c(=O)[nH]c(N)nc87)O[C@@H]6COP(O)(=S)O[C@H]6[C@@H](O)[C@H](n7cnc8c(=O)[nH]c(N)nc87)O[C@@H]6COP(O)(=S)O[C@H]6[C@@H](O)[C@H](n7cnc8c(N)ncnc87)O[C@@H]6COP(O)(=S)O[C@H]6[C@H]7OC[C@]6(COP(O)(=S)O[C@H]6[C@H]8OC[C@]6(COP(O)(=S)O[C@H]6[C@H]9OC[C@]6(CO)O[C@H]9n6cc(C)c(=O)[nH]c6=O)O[C@H]8n6cc(C)c(=O)[nH]c6=O)O[C@H]7n6cc(C)c(=O)[nH]c6=O)O[C@H]4n4cnc6c(N)ncnc64)O[C@H]5n4cc(C)c(=O)[nH]c4=O)CO[C@@H]2[C@@H]3O)c(=O)nc1N (some centres not stated) | Non-toxic | Active | Active
Cc1cn([C@@H]2O[C@@]3(COP(O)(=S)O[C@H]4[C@H]5OC[C@]4(CO)O[C@H]5n4cc(C)c(N)nc4=O)CO[C@@H]2[C@@H]3OP(O)(=S)OC[C@H]2O[C@@H](n3cnc4c(N)ncnc43)[C@H](O)[C@@H]2OP(O)(=S)OC[C@H]2O[C@@H](n3cnc4c(=O)[nH]c(N)nc43)[C@H](O)[C@@H]2OP(O)(=S)OC[C@H]2O[C@@H](n3cnc4c(=O)[nH]c(N)nc43)[C@H](O)[C@@H]2OP(O)(=S)OC[C@H]2O[C@@H](n3cc(C)c(=O)[nH]c3=O)C[C@@H]2OP(O)(=S)OC[C@H]2O[C@@H](n3ccc(N)nc3=O)[C@H](O)[C@@H]2OP(O)(=S)OC[C@H]2O[C@@H](n3ccc(N)nc3=O)[C@H](O)[C@@H]2OP(O)(=S)OC[C@H]2O[C@@H](n3ccc(N)nc3=O)[C@H](O)[C@@H]2OP(O)(=S)OC[C@H]2O[C@@H](n3cnc4c(=O)[nH]c(N)nc43)[C@H](O)[C@@H]2OP(O)(=S)OC[C@H]2O[C@@H](n3cnc4c(=O)[nH]c(N)nc43)[C@H](O)[C@@H]2OP(O)(=S)OC[C@H]2O[C@@H](n3cc(C)c(=O)[nH]c3=O)C[C@@H]2OP(O)(=S)OC[C@@]23CO[C@@H]([C@H](n4cc(C)c(=O)[nH]c4=O)O2)[C@@H]3OP(O)(=S)OC[C@@]23CO[C@@H]([C@H](n4ccc(N)nc4=O)O2)[C@@H]3O)c(=O)nc1N (some centres not stated) | Non-toxic | Active | Active
COCCO[C@@H]1[C@H](O)[C@@H](COP(O)(=S)O[C@H]2[C@@H](OCCOC)[C@H](n3cc(C)c(N)nc3=O)O[C@@H]2COP(O)(=S)O[C@H]2[C@@H](OCCOC)[C@H](n3cc(C)c(=O)[nH]c3=O)O[C@@H]2COP(O)(=S)O[C@H]2[C@@H](OCCOC)[C@H](n3cc(C)c(=O)[nH]c3=O)O[C@@H]2COP(O)(=S)O[C@H]2[C@@H](OCCOC)[C@H](n3cc(C)c(N)nc3=O)O[C@@H]2COP(O)(=S)O[C@H]2[C@@H](O)[C@H](n3cc(C)c(N)nc3=O)O[C@@H]2COP(O)(=S)O[C@H]2[C@@H](O)[C@H](n3cc(C)c(N)nc3=O)O[C@@H]2COP(O)(=S)O[C@H]2C[C@H](n3cc(C)c(=O)[nH]c3=O)O[C@@H]2COP(O)(=S)O[C@H]2[C@@H](O)[C@H](n3cnc4c(=O)[nH]c(N)nc43)O[C@@H]2COP(O)(=S)O[C@H]2[C@@H](O)[C@H](n3cnc4c(N)ncnc43)O[C@@H]2COP(O)(=S)O[C@@H]2[C@H](O)[C@@H](COP(O)(=S)O[C@H]3[C@@H](O)[C@H](n4cnc5c(=O)[nH]c(N)nc54)O[C@@H]3COP(O)(=S)O[C@H]3[C@@H](O)[C@H](n4cnc5c(=O)[nH]c(N)nc54)O[C@@H]3COP(O)(=S)O[C@H]3C[C@H](n4cc(C)c(=O)[nH]c4=O)O[C@@H]3COP(O)(=S)O[C@H]3C[C@H](n4cc(C)c(=O)[nH]c4=O)O[C@@H]3COP(O)(=S)O[C@H]3[C@@H](OCCOC)[C@H](n4cc(C)c(=O)[nH]c4=O)O[C@@H]3COP(O)(=S)O[C@H]3[C@@H](OCCOC)[C@H](n4cc(C)c(N)nc4=O)O[C@@H]3COP(O)(=S)O[C@H]3[C@@H](OCCOC)[C@H](n4ccc(N)nc4=O)O[C@@H]3COP(O)(=S)O[C@H]3[C@@H](OCCOC)[C@H](n4cc(C)c(N)nc4=O)O[C@@H]3COP(O)(=S)O[C@H]3[C@@H](OCCOC)[C@H](n4cc(C)c(N)nc4=O)O[C@@H]3CO)O[C@H]2n2cnc3c(N)ncnc32)O[C@H]1n1cc(C)c(N)nc1=O (some centres not stated) | Non-toxic | Active | Active
